Reference: the kinase profiling compilation of Christmann-Franck et al. (2016)
Several values for one entry are separate records, joined by “and”; a condition that tells them apart may be missing. Identical values can stand only once.

Experiments:
Test in all cases: radiometric filter-binding kinase assay, Kinase HotSpot
Details in all cases: compound 0.5 µM; ATP 10 µM
ACVR1B (human) = ACVR1B (human) (UniProt P36896)
AURKB (human) = AURKB (human) (UniProt Q96GD4)
BRAF (human) = BRAF (human) (UniProt P15056)
CAMK1D (human) = CAMK1D (human) (UniProt Q8IU85)
CAMK2G (human) = CAMK2G (human) (UniProt Q13555)
Sequence of CAMK2G (human) (Q13555 whole entry, looked up): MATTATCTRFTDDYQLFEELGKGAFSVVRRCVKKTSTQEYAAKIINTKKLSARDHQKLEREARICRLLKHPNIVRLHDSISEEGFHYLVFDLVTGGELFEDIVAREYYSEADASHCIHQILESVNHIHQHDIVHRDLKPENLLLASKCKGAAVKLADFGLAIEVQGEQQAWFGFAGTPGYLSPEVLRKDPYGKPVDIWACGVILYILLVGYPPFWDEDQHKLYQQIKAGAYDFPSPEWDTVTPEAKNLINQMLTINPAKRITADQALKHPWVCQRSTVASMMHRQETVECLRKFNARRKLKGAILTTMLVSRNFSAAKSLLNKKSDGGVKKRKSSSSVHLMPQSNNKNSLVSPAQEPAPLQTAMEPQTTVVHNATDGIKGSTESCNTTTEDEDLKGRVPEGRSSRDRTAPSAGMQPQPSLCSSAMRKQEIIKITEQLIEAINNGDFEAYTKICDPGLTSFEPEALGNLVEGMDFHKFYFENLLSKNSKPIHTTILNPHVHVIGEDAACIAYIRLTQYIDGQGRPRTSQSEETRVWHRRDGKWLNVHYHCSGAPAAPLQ

CDK2 CCNA2 (human) = CDK2 CCNA2 (human) (UniProt P24941+P20248)
CLK2 (human) = CLK2 (human) (UniProt P49760)
Sequence of CLK2 (human) (P49760 whole entry, looked up): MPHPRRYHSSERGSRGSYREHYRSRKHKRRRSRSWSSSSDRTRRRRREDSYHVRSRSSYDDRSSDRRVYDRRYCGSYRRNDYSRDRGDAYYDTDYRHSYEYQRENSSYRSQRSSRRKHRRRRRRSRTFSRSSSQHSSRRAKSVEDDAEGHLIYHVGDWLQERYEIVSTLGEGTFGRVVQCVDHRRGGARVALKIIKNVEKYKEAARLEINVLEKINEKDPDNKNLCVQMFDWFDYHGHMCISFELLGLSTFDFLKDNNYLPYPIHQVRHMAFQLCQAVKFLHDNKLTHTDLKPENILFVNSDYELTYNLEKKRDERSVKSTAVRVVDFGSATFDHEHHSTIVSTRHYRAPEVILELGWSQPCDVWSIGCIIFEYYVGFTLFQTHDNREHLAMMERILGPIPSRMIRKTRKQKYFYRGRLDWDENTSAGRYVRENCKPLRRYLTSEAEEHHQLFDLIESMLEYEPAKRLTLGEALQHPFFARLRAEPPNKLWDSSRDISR

CLK4 (human) = CLK4 (human) (UniProt Q9HAZ1)
CSNK1G2 (human) = CSNK1G2 (human) (UniProt P78368)
DAPK2 (human) = DAPK2 (human) (UniProt Q9UIK4)
DMPK (human) = DMPK (human) (UniProt Q09013)
EPHA6 (human) = EPHA6 (human) (UniProt Q9UF33)
Sequence of EPHA6 (human) (Q9UF33 whole entry, looked up): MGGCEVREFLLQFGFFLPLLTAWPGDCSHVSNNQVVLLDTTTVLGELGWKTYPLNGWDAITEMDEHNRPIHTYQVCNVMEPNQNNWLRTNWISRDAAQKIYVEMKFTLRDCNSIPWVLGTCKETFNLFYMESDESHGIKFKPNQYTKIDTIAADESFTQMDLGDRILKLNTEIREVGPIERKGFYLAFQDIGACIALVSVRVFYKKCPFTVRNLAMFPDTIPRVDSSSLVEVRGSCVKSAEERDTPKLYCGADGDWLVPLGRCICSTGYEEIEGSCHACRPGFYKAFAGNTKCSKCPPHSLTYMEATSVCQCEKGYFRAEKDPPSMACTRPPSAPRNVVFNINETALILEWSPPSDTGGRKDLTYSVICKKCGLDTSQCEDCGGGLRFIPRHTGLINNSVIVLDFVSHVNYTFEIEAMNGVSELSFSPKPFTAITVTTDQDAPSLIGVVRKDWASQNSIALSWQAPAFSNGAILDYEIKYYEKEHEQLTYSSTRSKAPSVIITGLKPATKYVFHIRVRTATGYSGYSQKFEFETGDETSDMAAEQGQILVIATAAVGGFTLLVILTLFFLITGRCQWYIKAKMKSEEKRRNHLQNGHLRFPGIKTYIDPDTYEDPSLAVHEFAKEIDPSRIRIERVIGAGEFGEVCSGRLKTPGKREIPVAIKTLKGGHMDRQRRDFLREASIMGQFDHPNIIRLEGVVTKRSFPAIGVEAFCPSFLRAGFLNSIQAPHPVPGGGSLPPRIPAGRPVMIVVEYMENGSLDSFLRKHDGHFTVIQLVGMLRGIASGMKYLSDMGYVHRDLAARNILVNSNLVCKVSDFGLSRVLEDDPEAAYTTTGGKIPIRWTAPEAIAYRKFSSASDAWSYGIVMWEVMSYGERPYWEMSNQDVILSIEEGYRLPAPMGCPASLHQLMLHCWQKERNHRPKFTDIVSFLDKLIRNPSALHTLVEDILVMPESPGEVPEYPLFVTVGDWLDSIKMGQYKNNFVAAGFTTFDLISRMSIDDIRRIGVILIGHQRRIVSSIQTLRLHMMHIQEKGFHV

ERBB4 (human) = ERBB4 (human) (UniProt Q15303)
FER (human) = FER (human) (UniProt P16591)
FGFR2 (human) = FGFR2 (human) (UniProt P21802)
FGFR3 (human) = FGFR3 (human) (UniProt P22607)
GSG2 (human) = GSG2 (human) (UniProt Q8TF76)
JAK3 JH1 JH2 (human) = JAK3 JH1 JH2 (human) (UniProt P52333)
MAP3K14 (human) = MAP3K14 (human) (UniProt Q99558)
MAP3K2 (human) = MAP3K2 (human) (UniProt Q9Y2U5)
MAPK11 (human) = MAPK11 (human) (UniProt Q15759)
Sequence of MAPK11 (human) (Q15759 whole entry, looked up): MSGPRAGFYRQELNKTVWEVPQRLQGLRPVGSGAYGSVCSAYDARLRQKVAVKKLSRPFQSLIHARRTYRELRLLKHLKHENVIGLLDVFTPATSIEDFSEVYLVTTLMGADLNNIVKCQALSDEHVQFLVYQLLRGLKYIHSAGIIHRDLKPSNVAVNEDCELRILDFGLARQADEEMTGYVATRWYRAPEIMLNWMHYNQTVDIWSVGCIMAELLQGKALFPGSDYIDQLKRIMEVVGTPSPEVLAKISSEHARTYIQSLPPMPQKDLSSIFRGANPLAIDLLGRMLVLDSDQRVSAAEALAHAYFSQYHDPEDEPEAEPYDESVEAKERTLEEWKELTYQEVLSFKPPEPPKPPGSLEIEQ

MARK3 (human) = MARK3 (human) (UniProt P27448)
MELK (human) = MELK (human) (UniProt Q14680)
MYO3B (human) = MYO3B (human) (UniProt Q8WXR4)
Sequence of MYO3B (human) (Q8WXR4 whole entry, looked up): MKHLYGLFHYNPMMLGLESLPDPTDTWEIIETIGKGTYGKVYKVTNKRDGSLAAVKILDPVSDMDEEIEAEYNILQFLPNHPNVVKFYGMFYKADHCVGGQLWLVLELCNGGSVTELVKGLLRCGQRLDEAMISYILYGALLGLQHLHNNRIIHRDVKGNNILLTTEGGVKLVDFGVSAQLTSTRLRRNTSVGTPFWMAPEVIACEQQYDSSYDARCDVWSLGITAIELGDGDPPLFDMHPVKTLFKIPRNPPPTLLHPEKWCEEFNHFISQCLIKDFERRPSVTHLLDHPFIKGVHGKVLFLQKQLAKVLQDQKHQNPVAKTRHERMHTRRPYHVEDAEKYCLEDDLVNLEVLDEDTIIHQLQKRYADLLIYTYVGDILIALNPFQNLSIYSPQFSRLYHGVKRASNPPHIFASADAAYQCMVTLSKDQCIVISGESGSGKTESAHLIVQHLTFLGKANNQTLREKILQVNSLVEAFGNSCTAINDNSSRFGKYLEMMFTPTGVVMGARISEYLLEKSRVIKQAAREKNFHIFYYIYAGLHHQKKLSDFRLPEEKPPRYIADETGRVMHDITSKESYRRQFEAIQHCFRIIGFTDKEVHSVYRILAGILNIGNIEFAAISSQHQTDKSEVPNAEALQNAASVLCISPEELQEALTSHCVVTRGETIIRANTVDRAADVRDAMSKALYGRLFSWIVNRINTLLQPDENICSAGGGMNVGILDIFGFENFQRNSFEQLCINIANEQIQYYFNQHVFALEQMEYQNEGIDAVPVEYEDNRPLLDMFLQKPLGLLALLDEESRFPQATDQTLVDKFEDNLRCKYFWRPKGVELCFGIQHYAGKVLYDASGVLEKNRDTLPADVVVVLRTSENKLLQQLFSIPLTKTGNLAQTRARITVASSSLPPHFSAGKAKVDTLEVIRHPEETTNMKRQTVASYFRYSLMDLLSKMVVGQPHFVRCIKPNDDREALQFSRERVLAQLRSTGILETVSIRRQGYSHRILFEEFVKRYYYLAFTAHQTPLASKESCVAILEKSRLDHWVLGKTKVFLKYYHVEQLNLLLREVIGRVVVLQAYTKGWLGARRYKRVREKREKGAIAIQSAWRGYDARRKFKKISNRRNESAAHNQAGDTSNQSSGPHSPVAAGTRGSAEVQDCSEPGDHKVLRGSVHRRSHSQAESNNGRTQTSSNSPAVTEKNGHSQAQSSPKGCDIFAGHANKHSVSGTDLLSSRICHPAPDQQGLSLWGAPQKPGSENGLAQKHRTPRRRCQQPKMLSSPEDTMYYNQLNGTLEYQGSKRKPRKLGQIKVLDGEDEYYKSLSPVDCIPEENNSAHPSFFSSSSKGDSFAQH

NEK9 (human) = NEK9 (human) (UniProt Q8TD19)
OXSR1 (human) = OXSR1 (human) (UniProt O95747)
PAK2 (human) = PAK2 (human) (UniProt Q13177)
PDGFRA (human) = PDGFRA (human) (UniProt P16234)
PLK2 (human) = PLK2 (human) (UniProt Q9NYY3)
PLK3 (human) = PLK3 (human) (UniProt Q9H4B4)
PRKACG (human) = PRKACG (human) (UniProt P22612)
PRKCB2 (human) = PRKCB2 (human) (UniProt P05771)
PRKCH (human) = PRKCH (human) (UniProt P24723)
PRKG1 (human) = PRKG1 (human) (UniProt Q13976)
RIPK2 (human) = RIPK2 (human) (UniProt O43353)
STK38 (human) = STK38 (human) (UniProt Q15208)
Sequence of STK38 (human) (Q15208 whole entry, looked up): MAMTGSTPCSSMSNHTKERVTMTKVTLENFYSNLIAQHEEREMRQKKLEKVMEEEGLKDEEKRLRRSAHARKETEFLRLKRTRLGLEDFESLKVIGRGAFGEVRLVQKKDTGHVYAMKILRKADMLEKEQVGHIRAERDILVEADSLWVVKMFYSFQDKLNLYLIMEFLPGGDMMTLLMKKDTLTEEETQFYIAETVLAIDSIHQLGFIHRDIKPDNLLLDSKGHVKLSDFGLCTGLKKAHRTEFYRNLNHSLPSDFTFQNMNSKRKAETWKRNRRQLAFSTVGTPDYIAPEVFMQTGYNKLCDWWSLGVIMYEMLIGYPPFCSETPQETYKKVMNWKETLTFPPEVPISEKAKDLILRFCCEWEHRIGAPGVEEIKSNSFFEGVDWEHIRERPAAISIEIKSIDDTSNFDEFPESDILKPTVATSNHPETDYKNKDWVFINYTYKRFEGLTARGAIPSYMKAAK

SYK (human) = SYK (human) (UniProt P43405)
TLK2 (human) = TLK2 (human) (UniProt Q86UE8)
ULK3 (human) = ULK3 (human) (UniProt Q6PHR2)
VRK1 (human) = VRK1 (human) (UniProt Q99986)
RPS6KA3 KD1 KD2 (human) = RPS6KA3 KD1 KD2 (human) (UniProt P51812)

Sequence of ACVR1B (human) (P36896 whole entry, looked up): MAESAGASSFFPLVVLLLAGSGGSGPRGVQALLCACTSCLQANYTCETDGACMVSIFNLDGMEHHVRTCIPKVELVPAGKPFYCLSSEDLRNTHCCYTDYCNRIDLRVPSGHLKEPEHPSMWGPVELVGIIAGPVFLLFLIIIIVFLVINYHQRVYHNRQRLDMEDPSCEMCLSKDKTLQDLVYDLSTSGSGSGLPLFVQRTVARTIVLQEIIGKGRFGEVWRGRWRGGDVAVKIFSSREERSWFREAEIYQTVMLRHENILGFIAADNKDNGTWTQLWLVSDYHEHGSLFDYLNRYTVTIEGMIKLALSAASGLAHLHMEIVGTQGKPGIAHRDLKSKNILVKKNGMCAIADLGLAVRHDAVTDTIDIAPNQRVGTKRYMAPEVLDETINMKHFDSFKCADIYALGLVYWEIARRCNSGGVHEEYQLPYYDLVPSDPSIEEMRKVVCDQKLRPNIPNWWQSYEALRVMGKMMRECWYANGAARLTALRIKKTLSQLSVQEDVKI

| SMILES | residual activity (ACVR1B (human)) [%] | residual activity (AURKB (human)) [%] | residual activity (CAMK1D (human)) [%] | residual activity (CAMK2G (human)) [%] | residual activity (CDK2 CCNA2 (human)) [%] | residual activity (CLK2 (human)) [%] | residual activity (CLK4 (human)) [%] | residual activity (CSNK1G2 (human)) [%] | residual activity (DAPK2 (human)) [%] | residual activity (DMPK (human)) [%] | residual activity (EPHA6 (human)) [%] | residual activity (ERBB4 (human)) [%] | residual activity (FER (human)) [%] | residual activity (FGFR2 (human)) [%] | residual activity (FGFR3 (human)) [%] | residual activity (GSG2 (human)) [%] | residual activity (JAK3 JH1 JH2 (human)) [%] | residual activity (MAP3K14 (human)) [%] | residual activity (MAP3K2 (human)) [%] | residual activity (MAPK11 (human)) [%] | further results |
| --- | --- | --- | --- | --- | --- | --- | --- | --- | --- | --- | --- | --- | --- | --- | --- | --- | --- | --- | --- | --- | --- |
| O=C1Cc2c([nH]c3ccc(Br)cc23)-c2ccccc2N1 | 99.8 | 84.3 | 112 | 116 | 37.4 | 95.7 | 91.1 | 102 | 100 | 110 | 93.7 | 101 | 89.7 | 100 | 101 | 89.1 | 103 | 106 | 94.2 | 104 | residual activity (BRAF (human)): 97.7%; residual activity (MARK3 (human)): 76.8%; residual activity (MELK (human)): 74.8%; residual activity (MYO3B (human)): 97.4%; residual activity (NEK9 (human)): 94%; residual activity (OXSR1 (human)): 107%; residual activity (PAK2 (human)): 95.5%; residual activity (PDGFRA (human)): 103%; residual activity (PLK2 (human)): 99.1%; residual activity (PLK3 (human)): 96%; residual activity (PRKACG (human)): 105%; residual activity (PRKCB2 (human)): 102%; residual activity (PRKCH (human)): 95.3%; residual activity (PRKG1 (human)): 93% and 95.9%; residual activity (RIPK2 (human)): 75.9%; residual activity (STK38 (human)): 98.6%; residual activity (SYK (human)): 81.5%; residual activity (TLK2 (human)): 99.4%; residual activity (ULK3 (human)): 83.2%; residual activity (VRK1 (human)): 87.3% |
| Cn1nc2c3c(cccc31)C(=O)c1ccccc1-2 | 102 | 83.5 | 70.3 | 109 | 105 | 94.5 | 69.8 | 91.5 | 104 | 107 | 87.6 | 94.3 | 99.2 | 105 | 95.9 | 53.1 | 107 | 107 | 103 | 109 | residual activity (MARK3 (human)): 96.6%; residual activity (MELK (human)): 83.6%; residual activity (MYO3B (human)): 97.7%; residual activity (NEK9 (human)): 96.6%; residual activity (OXSR1 (human)): 102%; residual activity (PAK2 (human)): 102%; residual activity (PDGFRA (human)): 97.6%; residual activity (PLK2 (human)): 93.5%; residual activity (PLK3 (human)): 96.2%; residual activity (PRKACG (human)): 107%; residual activity (PRKCB2 (human)): 97.8%; residual activity (PRKCH (human)): 94.3%; residual activity (PRKG1 (human)): 93.7% and 96%; residual activity (RIPK2 (human)): 75.7%; residual activity (RPS6KA3 KD1 KD2 (human)): 97.3%; residual activity (STK38 (human)): 98.5%; residual activity (SYK (human)): 94.8%; residual activity (TLK2 (human)): 101%; residual activity (ULK3 (human)): 94.9%; residual activity (VRK1 (human)): 84.1% |
| COc1cc2ncc(-c3ccccc3)nc2cc1OC | 95.2 | 74.4 | 96.6 | 94.5 | 92.9 | 87.4 | 102 | 84 | 97.3 | 103 | 90.4 | 65.9 | 80 | 103 | 96 | 92.1 | 90.3 | 115 | 92.5 | 95.7 | residual activity (BRAF (human)): 93.2%; residual activity (MARK3 (human)): 98.2%; residual activity (MELK (human)): 88.9%; residual activity (MYO3B (human)): 84.6%; residual activity (NEK9 (human)): 93.5%; residual activity (OXSR1 (human)): 100%; residual activity (PAK2 (human)): 85.6%; residual activity (PDGFRA (human)): 83.1%; residual activity (PLK3 (human)): 98.3%; residual activity (PRKACG (human)): 87.6%; residual activity (PRKCB2 (human)): 88.8%; residual activity (PRKCH (human)): 107%; residual activity (PRKG1 (human)): 77.1% and 96.2%; residual activity (RIPK2 (human)): 90.3%; residual activity (RPS6KA3 KD1 KD2 (human)): 101%; residual activity (STK38 (human)): 95.9%; residual activity (SYK (human)): 92.5%; residual activity (TLK2 (human)): 96.3%; residual activity (ULK3 (human)): 89.4%; residual activity (VRK1 (human)): 106% |
